How the values were obtained:
[1] = system: S.Tm in RAW 264.7 macrophages; assay: SAFIRE in the presence of a transcriptional (DRB) or translational (cycloheximide) inhibitor; format: cell-based, Salmonella enterica serovar Typhimurium; settings: 100 μM DRB or 1 μM cycloheximide, no EPM
Experimental: FIG. 13A depicts that RAWs were infected and treated with 25 μM of the indicated compounds using SAFIRE. From 2-18 hours post-infection, cells were treated with DMSO, 100 μM DRB, or 1 μM cycloheximide (CHX). Data for each inhibitor (DRB, CHX) treatment are normalized to cells not treated with EPMs, as differences in basal infection were observed (FIG. 10). Data are mean+SEM of three independent biological replicates, each performed in triplicate. FIG. 13B depicts that RAWs were seeded in 6-well dishes and treated in parallel with FIG. 13A. RNA was extracted at the indicated timepoints, reverse transcribed, and expression of the indicated genes was determined using qPCR. Data shown are mean+SEM of four separate wells from one replicate, and were performed in parallel with one replicate of (A). ****p<0.0001 compared to uninfected by two-way ANOVA with Dunnett's post-test.
Therefore, the question was whether the EPMs require host transcription or translation of AMPs or other factors, for antimicrobial activity. SAFIRE was performed in the presence of a transcriptional (DRB) or translational (cycloheximide) inhibitor (FIG. 13). Since exposure to inhibitors prior to infection greatly diminished macrophage viability, DRB or cycloheximide was added 2 hours post-infection, concurrently with EPMs. […]

S.Tm = assay: Swimming assay in soft agar (proton motive force); format: cell-based, Salmonella enterica serovar Typhimurium; settings: 50× the MIC (6.25 mM)
Experimental: One way to inhibit efflux pumps is to disrupt the proton motive force, which is required for transport by some EPs. […] Bacteria were injected into the center of 0.25% agar plates, and 10 μl of compound was added to paper disks on the periphery. […] Also ampicillin and rifampicin were tested. We plotted the halo radius versus the concentration as the fold above the MIC (FIG. 9G). […] Next, it was determined whether PAβN inhibited swimming; PAβN is thought to disrupt membranes over long incubations. […] Finally, the EPMs at […] were tested (FIGS. 9D-F).
Saturated overnight cultures were diluted to an OD600 of 0.01 in LB and 1 μL was injected into the center of low agar (0.25%) LB plates. Ten microliters of the indicated compounds were added to sterilized Whatman paper disks (diameter 0.7 cm) placed equidistant from the plate center.

[2] = system: bacterial inner membrane potential; assay: TMRM incorporation (inner membrane potential); format: cell-based, Salmonella; settings: 30 minutes, CCCP 1 mM
Experimental: (§1) FIGS. 20A and 20B depict Bacteria treated with DMSO or EPMs [100 μM] but not CCCP [1 mM] acquire TMRM staining within 30 minutes. FIG. 20A depicts representative data from one of three independent experiments. FIG. 20B depicts median fluorescence intensity from three experiments normalized to unstained control (0). FIG. 20C depicts disk diffusion assays; the radius of the zone of growth inhibition after 16 hours of exposure to compound across a dose range. Black lines, semilog fit for the combined antibiotic data; gray lines, semilog fit for CCCP and PAβN; dotted line, limit of detection (disk radius). Average of two measurements from each image captured from one experiment representative of two independent experiments. FIGS. 20D and 20E depict nitrocefin access to the periplasm as monitored by nitrocefin [100 μM] hydrolysis in the presence of the indicated concentrations of compounds. FIG. 20D depicts absorbance 486 nm of bla+ Salmonella normalized to bla− Salmonella. […]
To establish whether the three EPMs alter bacterial inner membrane potential, their effect on the incorporation of the voltage-sensitive dye Tetramethylrhodamine methyl ester (TMRM) was observed. […] To establish whether a longer incubation with the EPMs may compromise membrane integrity, the effect of the EPMs on bacterial swimming, an energy intensive activity was monitored over 15 hours (FIGS. 20C, 10). […]

bacterial outer membrane = assay: Nitrocefin access to the periplasm (outer membrane permeability); format: cell-based, Salmonella
Experimental: as §1, with “Salmonella. Data is representative of 3-4 independent biological replicates. FIG. 20E depicts slope of the linear region of the A486 plot from at least three experiments. Data is normalized to A486/minute. *p<0.05, ***p<0.001, ****p<0.0001 by one-way ANOVA with Dunnett's post-test.” for “Salmonella.”

[3] = system: Salmonella enterica serovar Typhimurium (S.Tm) within RAW 264.7 murine macrophages; assay: SAFIRE: fluorescence microscopy assay of S.Tm load within macrophages; format: cell-based
Experimental: A high-content, high-throughput fluorescence microscopy-based screening platform to assay S.Tm load within macrophages was developed (FIG. 1A). RAW 264.7 murine macrophages, a widely used cell line for bacterial infection studies, were infected with bacteria in a standard gentamicin protection assay. The Salmonella expressing GFP driven by the sifB promoter was incubated with the compound beginning at 2 hours post-infection. At 18 hours post-infection, cells were stained with MitoTracker Red CMXRos as a marker of macrophage vitality and processed for fluorescence microscopy. Stained with DAPI. A MATLAB®-based algorithm was developed to quantify infection (FIG. 1B) and compared to statistics to describe infection. Percentage of infected cells was determined by counting the proportion of macrophages within an image with at least 2 GFP+ pixels. Infection area was calculated by normalizing the number of GFP+ pixels within a cell to the cell's total area, then averaging across all cells in an image. To evaluate the approach, 2 μg/ml rifampicin in 96-well and 384-well plates was tested in three independent replicates. The Z′-factor was employed as a measure of assay reproducibility. Numbers close to 1 indicated high reproducibility. For percentage of infected macrophages, the Z′-factor was 0.59 and 0.48 in 96-well and 384-well plates, respectively, compared with 0.66 and 0.38 for infection area. The optimal Z′-factor threshold for high-throughput screening was 0.5; however, values above 0 were considered marginal but feasible. Therefore, the percentage of infected macrophages statistic was used.
The 14,400 compound library Maybridge HitFinder™ v11 was screened, which has been extensively screened against mammalian and microbial targets. The library was screened in duplicate at 25 μM in 384-well plates (FIG. 1C). Data were normalized using the B-score method to remove positional variation. The significance of B-scores was calculated using a modified t-test assuming an inverse gamma distribution of variances. Using a dual threshold of B-score greater than 1 and standard deviation from the mean and p-value less than 0.05, 908 compounds (6.3%) were identified that decreased or increased the percentage of infected macrophages. […] Compounds that altered infection by at least 25% in 96-well plates were considered validated hits.
For high-throughput screening and validation, 7×10^3 macrophages in 40 μL or 3×10^4 macrophages in 100 μL were seeded in 384- or 96-well black-walled, glass-bottomed plates (Brooks Automation). […] Forty-five minutes after bacterial addition, 20 or 50 μL gentamicin was added to a final concentration of 40 μg/mL. […] At 2 hours post-infection, 200 or 500 nL compound was added using a pin tool (CyBio) to yield a final concentration of 25 μM. Each assay plate included rifampicin and DMSO controls. In some experiments, media was removed and replaced with fresh medium containing 40 μg/mL gentamicin and the indicated concentrations of drugs. At 17.5 hours post-infection, PBS containing MitoTracker Red CMXRos (Life Technologies) was added to yield a final concentration of 300 nM (384-well) or 100 nM (96-well). Thirty minutes later, 16% paraformaldehyde was added to a final concentration of 1-2% and incubated at room temperature for 15 minutes. Wells were washed twice with PBS and stained for 20 minutes with 1 μM DAPI; wells were washed twice and stored in 90% glycerol in PBS until imaging.
High magnification images were acquired on an Olympus IX81 inverted widefield microscope. For screening imaging, three-color images were acquired at 10× or 20× on a Cellomics ArrayScan VTI (Thermo) and exported to DIB files. At least two images were taken per well for all experiments. […]

[4] = Freeze-thaw sensitivity of DMSO solution, read out by SAFIRE; format: physicochemical; settings: 25 μM; freeze thawed 20 times vs freshly dissolved
Experimental: SAFIRE was used to quantify infection of macrophages treated with 25 μM nalidixic acid that was cherry-picked from the plates used to perform the screen (n=2), freshly dissolved in DMSO (n=3), or freshly dissolved and freeze thawed 20 times (n=3). Data are mean+SEM.

In the case of `C[C@@H]1C[C@@H]([C@H](O)CC2CC(=O)NC(=O)C2)C(=O)[C@@H](C)C1` [cyclohexamide, cycloheximide], the “basal infection of macrophages” value [1] is reported as “decreased basal infection”.

In the case of `N#CC(C#N)=NNc1cccc(Cl)c1` [CCCP, reference compound], the “halo in swimming assay” value (S.Tm) is reported as “creating a halo” and the “decrease of TMRM levels versus DMSO” value [2] is reported as “approximately 50 fold”.

In the case of polymyxin B, the “nitrocefin access to the periplasm” value (bacterial outer membrane; 1 μg/mL) is reported as “do not by themselves allow nitrocefin access to the periplasm” and the “nitrocefin access to the periplasm” value (bacterial outer membrane; 5 μg/mL) is reported as “high enough to allow nitrocefin access to the periplasm”.

In the case of `OC[C@H]1O[C@@H](n2cnc3cc(Cl)c(Cl)cc32)[C@H](O)[C@@H]1O` [DRB], the “basal infection of macrophages” value [1] is reported as “decreased basal infection”.

With `CCn1cc(C(=O)O)c(=O)c2ccc(C)nc21` [Nalidixic acid] the “B-score, first replicate of the screen” value ([3]; 25 μM) was −4.41, the “B-score, second replicate of the screen” value ([3]; 25 μM) was 0.70 and the “hit status in SAFIRE screen” value ([3]; Maybridge HitFinder v11 library screened at 25 μM) was “Nalidixic acid^2”. The “sensitivity to freeze-thawing when dissolved in DMSO” value [4] was “sensitive to freeze-thawing”.
